The values that follow come from patent US4144242A, “Process for the purification of clavulanic acid” (Glaxo Laboratories Limited, priority 1975, dated 1979).

Structures can show the parent of a compound that is named as a salt. Where two headings read alike, the source gives them in different places.

Data set [1] in a line: pKa by potentiometric titration of the salt. It counts as physicochemical.
Data set [2] is described as follows: Stability in aqueous solution / on storage. The class given is physicochemical.
Another data set relates to β-lactamase enzymes. Kind of data set: Inhibition of β-lactamase enzymes. The class given is biochemical, gram-positive and gram-negative bacteria.
Data set [3] concerns β-lactamases produced by gram-positive organisms and by gram-negative organisms in classes I-V. Kind of data set: Stability to the action of β-lactamases. It counts as biochemical. The note with it: β-lactamases of S. aureus, B. cereus and gram-negative classes I-V (Richmond and Sykes).
Data set [4] has as its system gram-negative and gram-positive microorganisms. Kind of data set: Antibacterial activity. The note with it: range of gram-negative and gram-positive microorganisms. The class given is cell-based.
A short description of data set [5]: Solubility of lithium clavulanate in aqueous lithium chloride. It counts as physicochemical. The following applies: about 20° C., read-out: Solubility in mz/ml of lithium clavulanate (approximate). How it is done: The eluate will normally contain the lithium salt, e.g. lithium chloride, at a concentration in the range 0.5 to 2.5M whereas, as indicated above, the salting out effect is most efficient at concentrations in the range 5M to 10 M. It is therefore preferred to concentrate the eluate, for example by evaporation in vacuo, e.g. by a factor of about 5. The solubility of lithium clavulanate at about 20° C. in various concentrations of aqueous lithium chloride is given in the following table: […]

Data set [6] in a line: Uptake of atmospheric water (hygroscopicity). It counts as physicochemical. How it is done:
The solid was hygroscopic. It was ground in a pestle and mortar and allowed to take up atmospheric water at 18° C. After about 22% (w/w) of water was taken up, an equilibrium was reached.

`O=C(O)[C@H]1/C(=C/CO)O[C@@H]2CC(=O)N21` [calcium salt]: the pKa – broadly, the negative logarithm of the acid dissociation constant – in data set [1] (read-out: pKa value of the corresponding acid) is approximately 2.4.
With `O=C(O)[C@H]1/C(=C/CO)O[C@@H]2CC(=O)N21` [clavulanic acid, (2R, 5R, Z)-3-(2-hydroxyethylidene)-7-oxo-4-oxa-1-azabicyclo[3,2,0]heptane-2-carboxylic acid], the “stability of the free acid” value in data set [2] (after its formation) was “rather unstable”. Moreover, the “stability in aqueous solution” value in data set [2] (aqueous solution, dependence on pH) is “rather unstable in aqueous solution outside the pH range 5.5 to 8”. Moreover, the “inhibition of class I β-lactamase enzymes” value in the data set with β-lactamase enzymes (a number of class I enzymes (e.g. Bacteroides fragilis, Proteus vulgaris, Proteus morganii, Proteus rettgeri, Enterobacter cloacae, Citrobacter freundii, Providencia species, Hafnia alvei)) is “inhibited”. In addition, the “ability to inhibit β-lactamase enzymes” value in the data set with β-lactamase enzymes (enzymes of gram-positive organisms (S. aureus, B. cereus) and classes II-V from gram-negative bacteria) is reported as “possess the ability to inhibit β-lactamase enzymes”. Further, the “stability to the action of β-lactamases” value in data set [3] is recorded as “stable”. Also, the antibacterial activity result in data set [4] was “have antibacterial activity”.
Regarding `O=C(O)[C@H]1/C(=C/CO)O[C@@H]2CC(=O)N21` [lithium clavulanate], the “pKa value of the corresponding acid” value in data set [1] (listed as lithium salt) is recorded as “about 2.3”. For the same compound, the solubility stood at 23500 µg/mL in data set [5] (2.5 M aqueous LiCl); 10200 µg/mL in data set [5] (3.75 M aqueous LiCl); 4100 µg/mL in data set [5] (5.0 M aqueous LiCl); 1800 µg/mL in data set [5] (6.25 M aqueous LiCl); 800 µg/mL in data set [5] (7.5 M aqueous LiCl).
Consider `O=C(O)[C@H]1/C(=C/CO)O[C@@H]2CC(=O)N21` [sodium salt, sodium clavulanate], for which, in data set [6] (crystalline solid), the hygroscopicity result is reported as “hygroscopic”. In addition, in data set [6] (ground solid, atmospheric water at 18° C.), the “water taken up at equilibrium” value is “about 22 % (w/w)”.
